Source: US20240252497A1, “USE OF COMPLEMENT FACTOR D INHIBITOR FOR TREATMENT OF GEOGRAPHIC ATROPHY SECONDARY TO AGE-RELATED MACULAR DEGENERATION” (Alexion Pharmaceuticals, Inc., priority 2021, published 2024)

Legend:
[1] = Ocular distribution of Compound 1 after oral administration; format: in vivo
Description: As an orally administered small molecule, Compound 1 is advantageous over therapeutic agents being investigated for the use in treating GA, which rely in intravitreal administration. In this regard, oral CFD inhibitors, such as Compound 1, not only provide GA patients with a more convenient and accessible option for therapy, but also help reduce the patient and caregiver burden for by lowering the need for clinical visits and minimize the risk of ocular injection-related adverse events. […] Given the overall pharmaceutical profile of Compound 1, the present disclosure provides that a treatment regimen with Compound 1 leads to better patient compliance and improved clinical outcomes in patients with GA.

[2] = MAD study (tolerability, liver enzymes); format: in vivo, human; conditions: high doses, after dosing was ceased
Protocol: The 100 mg BID, 200 mg BID, and 400 mg QD dose regimens proposed for this study are based on simulation results. […] Based on data from the literature, retina and choroid RPE on the retinal side are more likely to be the target eye tissues. However, the choroid RPE on the capillary bed side cannot be completely ruled out as a potential target. The proposed doses allow for the assessment of two different dosing intervals, i.e., BID vs QD. The 400 mg QD dosing regimen, if shown to be safe and effective, would be more convenient for patients and encourage better compliance relative to bid dosing. An up to 2-fold uncertainty of model prediction on PK and APH inhibition in the target eye tissues is anticipated as the physiological eye parameters in humans were translated from Dutch-Belted rabbits. […] The elevations were transient and not considered of clinical significance. […] A dose taper was instituted in subsequent studies as a risk mitigation measure.

blood-retina barrier crossing [1]: cross the blood-retina barrier
SMILES: CC(=O)c1nn(CC(=O)N2C[C@H](F)C[C@H]2C(=O)Nc2cccc(Br)n2)c2ccc(-c3cnc(C)nc3)cc12 [Compound 1, (2S,4R)-1-(2-(3-acetyl-5-(2-methylpyrimidin-5-yl)-1H-indazol-1-yl)acetyl)-N-(6-bromopyridin-2-yl)-4-fluoropyrrolidine-2-carboxamide]
retention in ocular tissues after oral administration ([1]; choroid and retinal pigment epithelium (RPE)): selective retention in ocular tissues containing melanin
ALT elevations [2]: ALT elevations were observed at high doses in 2 subjects after dosing was ceased
